Among the data in patent US9850183B2, “Conjugates derived from non-steroidal anti-inflammatory drugs and methods of use thereof in imaging” (Reiley Pharmaceuticals, Inc., priority 2014, dated 2017) are IC50 values, retold here.

Where two headings read alike, the source gives them in different places.

One test addresses T1, ovine COX-1 (Ovis aries, UniProt P05979).
T1 sequence (P05979 25-600): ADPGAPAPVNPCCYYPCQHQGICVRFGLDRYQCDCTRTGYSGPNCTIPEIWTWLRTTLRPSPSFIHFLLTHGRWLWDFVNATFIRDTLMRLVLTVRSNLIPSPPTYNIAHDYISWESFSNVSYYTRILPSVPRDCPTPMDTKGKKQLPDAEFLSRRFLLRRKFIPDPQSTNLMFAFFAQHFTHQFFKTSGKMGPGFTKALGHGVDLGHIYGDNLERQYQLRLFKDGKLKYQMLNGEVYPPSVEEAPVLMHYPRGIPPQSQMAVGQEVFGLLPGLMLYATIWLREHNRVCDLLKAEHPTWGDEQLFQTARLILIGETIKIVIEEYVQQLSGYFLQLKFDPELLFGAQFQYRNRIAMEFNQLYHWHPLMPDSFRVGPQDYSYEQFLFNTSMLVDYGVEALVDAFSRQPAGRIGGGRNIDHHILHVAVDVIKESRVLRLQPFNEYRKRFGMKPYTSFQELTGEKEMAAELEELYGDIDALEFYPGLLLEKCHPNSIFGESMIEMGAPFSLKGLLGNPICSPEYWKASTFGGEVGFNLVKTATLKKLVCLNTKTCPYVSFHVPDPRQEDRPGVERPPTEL
Put plainly: biochemical. As for the experimental part: (§1) The ability of compounds to inhibit ovine COX-1 and human COX-2 was determined using a commercially available enzyme immunoassay (EIA) kit (catalog no. 701090 (COX-1); 701080 (COX-2) Cayman Chemical Co., Ann Arbor, Mich., USA) according to the manufacturer's protocol. COX catalyzes the first step in the biosynthesis of AA to PGH2. PGF2α, produced from PGH2 by reduction with stannous chloride, was measured by EIA (ACE™ competitive EIA, Cayman Chemical, Ann Arbor, Mich., USA). Briefly, to a series of supplied reaction buffer solutions [960 μl 0.1 M Tris-HCl (pH 8.0) containing 5 mM EDTA and 2 mM phenol] with either COX-1 or COX-2 (10 μl) enzyme in the presence of heme (10 μl), 10 μl of various concentrations of test drug solutions were added. These solutions were incubated for 15 min at 37° C. and subsequently 10 μl AA solution (100 μM) was added. The COX reaction was stopped by the addition of 30 μl stannus chloride after 2 min, mixed immediately, supernatants were 2000 fold diluted. The produced PGF2α was measured by EIA. This assay is based on the competition between PGs and a PG-acetylcholinesterase conjugate (PG tracer) for a limited amount of PG antiserum. The amount of PG tracer that is able to bind to the PG antiserum is inversely proportional to the concentration of PGs in the wells since the concentration of the PG tracer is held at a constant while the concentration of PGs varies. The specific antiserum-PG complex bound to a mouse anti-rabbit IgG that had been previously attached to the well. The plate was washed to remove any unbound reagents and 200 μl Ellman's reagent (5,5′-dithiobis-(2-nitrobenzoic acid), which contains the substrate to acetylcholine esterase, was added to the well. The product of this enzymatic reaction generates a distinct yellow color that absorbs at 406 nm. The intensity of this color, determined by spectrophotometry, is proportional to the amount of PG tracer bound to the well, which is inversely proportional to the amount of PGs present in the well during the incubation. Percent inhibition was calculated by the comparison of the compounds treated to the various control incubations.
(§2) Dose-response curves were generated using XLFit (IDBS, Surrey, UK) or Prism (GraphPad Software, La Jolla, Calif., US) to calculate IC50 values for each compound tested.

For another test, the target named is T2, human COX-2 (Homo sapiens, UniProt P35354).
T2 construct: purchased Cayman Chemical Co., Ann Arbor, Mich., USA 701080
T2 sequence (P35354 18-604): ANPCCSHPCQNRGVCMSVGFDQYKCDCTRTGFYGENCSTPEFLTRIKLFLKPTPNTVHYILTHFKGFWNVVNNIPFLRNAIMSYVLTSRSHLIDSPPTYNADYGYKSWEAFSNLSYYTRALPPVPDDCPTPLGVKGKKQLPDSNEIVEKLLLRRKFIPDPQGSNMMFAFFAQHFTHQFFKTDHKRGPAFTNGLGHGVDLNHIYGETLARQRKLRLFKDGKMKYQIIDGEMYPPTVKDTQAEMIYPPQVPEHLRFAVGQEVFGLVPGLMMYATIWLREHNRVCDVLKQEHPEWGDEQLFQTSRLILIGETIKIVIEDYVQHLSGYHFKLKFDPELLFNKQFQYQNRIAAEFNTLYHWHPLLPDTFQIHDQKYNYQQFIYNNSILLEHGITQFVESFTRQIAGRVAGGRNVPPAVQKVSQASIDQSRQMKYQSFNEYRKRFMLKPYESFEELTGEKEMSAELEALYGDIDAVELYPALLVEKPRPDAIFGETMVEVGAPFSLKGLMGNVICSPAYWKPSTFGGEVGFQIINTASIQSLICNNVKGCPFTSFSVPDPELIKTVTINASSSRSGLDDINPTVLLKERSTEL
Nature of the test: COX-2 enzyme assay (EIA kit, PGF2α readout). It is filed as biochemical. On the procedure:
as §1, §2

In a further test the target is T3, COX-2 (Mus musculus, UniProt Q05769).
T3 construct: endogenous in cells; host or cells: RAW264.7 murine macrophages, stimulated with LPS and IFN-g
T3 sequence (Q05769 18-604): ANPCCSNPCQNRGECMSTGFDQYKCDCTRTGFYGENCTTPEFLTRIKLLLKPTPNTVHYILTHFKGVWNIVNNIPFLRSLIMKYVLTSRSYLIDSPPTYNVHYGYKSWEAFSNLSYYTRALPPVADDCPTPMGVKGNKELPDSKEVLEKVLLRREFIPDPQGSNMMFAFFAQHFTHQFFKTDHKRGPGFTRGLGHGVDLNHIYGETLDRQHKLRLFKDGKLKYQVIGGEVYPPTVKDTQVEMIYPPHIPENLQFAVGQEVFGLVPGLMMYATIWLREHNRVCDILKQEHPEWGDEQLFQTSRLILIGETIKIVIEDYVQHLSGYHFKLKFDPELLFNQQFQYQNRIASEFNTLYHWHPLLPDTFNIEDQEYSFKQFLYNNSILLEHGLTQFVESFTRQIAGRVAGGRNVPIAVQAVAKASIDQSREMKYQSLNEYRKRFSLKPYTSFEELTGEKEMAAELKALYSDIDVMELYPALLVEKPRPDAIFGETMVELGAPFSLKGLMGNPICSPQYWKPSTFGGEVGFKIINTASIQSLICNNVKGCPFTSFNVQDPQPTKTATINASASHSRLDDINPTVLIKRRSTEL
Nature of the test: Cell-based COX-2 assay (PGE2 in LPS/IFN-g stimulated RAW264.7 cells). To be noted: RAW264.7 murine macrophages, 1 μg/ml LPS and 10 U/ml IFN-g for 7 h, PGE2 readout. On the procedure: RAW264.7 murine macrophages were obtained from the Cell Bank of Shanghai Institute of Biochemistry and Cell Biology, Chinese Academy of Sciences (Shanghai, China) and cultured in Dulbecco's modified Eagle's medium containing 100 U/ml penicillin and 100 μg/ml streptomycin at 37° C. in 5% CO2.
RAW264.7 cells were plated at a density of 2.5×10^5/ml cells in a 96-well plate with 0.1 ml of culture medium per well and cultured overnight. The cells were pre-incubated for 30 min with various doses of compounds and stimulated for 7 h with 1 μg/ml LPS and 10 U/ml IFN-g. The cell culture supernatants were collected immediately following treatment and centrifuged at 1,000 rpm for 5 min to remove the particulate matter. PGE2 was determined using a Prostaglandin E2 assay kit (catalog no. 62P2APEB; Cisbio Co.,). 10 μL of cell supernatant was transferred to a 384-well low volume plate (e.g. Corning® 3544), 5 μL of PGE2-d2 was added, followed by 5 μL anti-PGE2 Cryptate as a negative control. Replace the standard by 10 μL of diluent and PGE2-d2 by 5 μL of reconstitution buffer, Cal0 (for positive control), replace the standard by 10 μL of diluent. Incubate at 4° C. overnight. After centrifuging at 1,000 rpm for 1 min, the dual fluorescence emissions of 615 and 665 nm with a 320 nm excitation were measured using an Envision plate reader (Perkin Elmer, Shelton, Conn.). The results are expressed as the ratio of 665 nm/615 nm emissions.
as §2

Setting [1] is: ovine COX-1 enzyme, EIA, read-out: COX-1 IC50 (μm) enzyme.
The mark [2] stands for this setting: human COX-2 enzyme, EIA, 15 min pre-incubation at 37° C., read-out: COX-2 IC50 (μM) enzyme.

As usually defined, the IC50 is the concentration needed to halve the response being measured. For the compound `COc1ccc2c(c1)c(CC(=O)NCCCCCCCNC(=O)[c-]1cccc1)c(C)n2C(=O)c1ccc(Cl)cc1.[C-]#[O+].[C-]#[O+].[C-]#[O+].[Re+]` [Compound 246], the IC50 on ovine COX-1 (setting [1]) is greater than 30000 nM; on human COX-2 (setting [2]) it was 0.1 µM; against COX-2 it was 0.2 µM.

`COc1ccc2c(c1)c(CC(=O)NCCCCCC[N+]13CC[S][Re-]14(=[O])[S]CC[N]4C(=O)C3)c(C)n2C(=O)c1ccc(Cl)cc1` (stereo not drawn) [Compound 260]: the results for the half-maximal inhibitory concentration (IC50) at ovine COX-1 (setting [1]), at human COX-2 (setting [2]) and on COX-2 were greater than 30000 nM, 0.3 µM and 0.2 µM, respectively.

On to `COc1ccc2c(c1)c(CC(=O)NCCCCCC[N+]13CC[S][Re-]14(=[O])[S]CC[N]4CC3)c(C)n2C(=O)c1ccc(Cl)cc1` (stereo not drawn) [Compound 275], for which the results for the concentration for half-maximal inhibition (IC50) at ovine COX-1 (setting [1]), on human COX-2 (setting [2]) and at COX-2 were greater than 30000 nM, 0.7 µM and 0.2 µM, respectively.

For `COc1ccc2c(c1)c(CC(=O)NCCCCCCC[N+]13CC[S][Re-]14(=[O])[S]CC[N]4CC3)c(C)n2C(=O)c1ccc(Cl)cc1` (stereo not drawn) [Compound 305], the IC50 at ovine COX-1 is greater than 30000 nM; against human COX-2 it was 0.3 µM; against COX-2, 0.1 µM.

Turning to `COc1ccc2c(c1)c(CC(=O)NCCCOCCC[N+]13CC[S][Re-]14(=[O])[S]CC[N]4CC3)c(C)n2C(=O)c1ccc(Cl)cc1` (stereo not drawn) [Compound 306], the IC50 on ovine COX-1 (setting [1]) is greater than 30000 nM; on human COX-2 (setting [2]), 0.7 µM; on COX-2, 0.2 µM.
